The source of these data is US10508085B2, “Compounds and methods for IDO and TDO modulation, and indications therefor” (Plexxikon Inc., priority 2016, dated 2019).

Molecules are shown by their SMILES. pIC50: −log10 of the molar value. Read-outs that look alike come from different tables or passages of the source.

Test [1] addresses T1, Human Indoleamine 2,3-dioxygenase (IDO) (Homo sapiens, UniProt P14902).
T1 construct: His tag (N); made in house; host or cells: E. coli
The test can be described thus: Human IDO enzymatic assay (kynurenine level). The test is classed as biochemical. Conditions: for IC50: 6 nM IDO, 10 μM L-Trp, geometric mean, read-out: IDO1 GMean: IC50 (μM) (Biochemical Assay). The essentials:
(§1)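 IDO conditions: 6 nM His-IDO, 10 μM L-Trp, 5 μM methylene blue, 20 min, RT. TDO conditions: 1 nM His-TDO, 350 μM L-Trp, 0.4 μM methylene blue, 70 min, RT. Both used pH 6.5 phosphate plus ascorbate/catalase, TCA stop at 50° C, kynurenine readout, nonlinear-regression IC50.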

Test [2] deals with T2, human IDO (IDO1-expressing HEK293 cells) (Homo sapiens, UniProt P14902).
T2 construct: expressed in transfected cells
Description: Cell based kynurenine assay, IDO1-expressing HEK293 cell clones. The following applies: for IC50: IDO1-expressing HEK293 cells, geometric mean, read-out: HEK293 IDO1 Kynurenine GMean IC50 (μM) (Cellular Assay). The method, boiled down:
(§2)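 Kynurenine in culture supernatant read after 24 h compound exposure of HEK293 cells stably expressing human IDO1 or TDO. IC50 from nonlinear regression of % inhibition relative to 0.2% DMSO cell (high) and media-only (low) controls.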

Test [3] deals with T3, human TDO (TDO-expressing HEK293 cells) (Homo sapiens, UniProt P48775).
T3 construct: expressed in transfected cells
The test can be described thus: Cell based kynurenine assay, TDO-expressing HEK293 cell clones. The following applies: for IC50: TDO-expressing HEK293 cells, geometric mean, read-out: HEK293 TDO Kynurenine GMean IC50 (μM) (Cellular Assay). The essentials: as §2

Test [4] concerns the target T4, Human Tryptophan 2,3-dioxygenase (TDO) (Homo sapiens, UniProt P48775).
T4 construct: His tag (N); made in house; host or cells: E. coli
Description: Human TDO enzymatic assay (kynurenine level). The test is classed as biochemical. The following applies: for IC50: 1 nM TDO, 350 μM L-Trp, geometric mean, read-out: TDO GMean: IC50 (μM) (Biochemical Assay). The essentials: as §1

T4 sequence (P48775 whole entry): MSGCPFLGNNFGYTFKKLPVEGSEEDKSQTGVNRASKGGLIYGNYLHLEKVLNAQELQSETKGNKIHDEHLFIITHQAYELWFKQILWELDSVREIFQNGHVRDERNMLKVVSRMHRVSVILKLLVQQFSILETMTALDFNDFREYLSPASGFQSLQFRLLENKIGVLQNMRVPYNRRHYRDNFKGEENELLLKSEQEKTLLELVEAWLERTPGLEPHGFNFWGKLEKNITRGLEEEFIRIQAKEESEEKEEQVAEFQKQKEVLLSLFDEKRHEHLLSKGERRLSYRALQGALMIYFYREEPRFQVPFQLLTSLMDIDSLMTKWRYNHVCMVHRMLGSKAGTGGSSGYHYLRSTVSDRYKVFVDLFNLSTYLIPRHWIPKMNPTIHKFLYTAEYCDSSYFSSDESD
T3 sequence (P48775 whole entry): as above
T2 sequence (P14902 whole entry): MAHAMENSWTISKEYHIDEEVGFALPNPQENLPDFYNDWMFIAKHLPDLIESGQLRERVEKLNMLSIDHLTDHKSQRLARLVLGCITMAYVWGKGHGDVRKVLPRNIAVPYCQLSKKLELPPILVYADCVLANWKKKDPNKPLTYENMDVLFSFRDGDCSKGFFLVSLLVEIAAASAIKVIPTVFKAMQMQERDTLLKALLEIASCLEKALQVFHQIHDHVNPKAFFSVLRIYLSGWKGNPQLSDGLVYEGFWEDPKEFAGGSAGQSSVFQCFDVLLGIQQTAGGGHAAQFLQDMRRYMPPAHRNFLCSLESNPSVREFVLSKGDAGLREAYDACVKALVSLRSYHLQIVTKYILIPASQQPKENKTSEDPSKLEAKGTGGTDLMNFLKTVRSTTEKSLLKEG
T1 sequence (P14902 whole entry): as above

For the compound `CC(C)(C1CCN(C(=O)NCCC(F)(F)F)CC1)C(O)c1cc(Cl)cc2cn[nH]c12` (stereo not shown) [Compound P-0472, 4-(1-(5-chloro-1H-indazol-7-yl)-1-hydroxy-2-methylpropan-2-yl)-N-(3,3,3-trifluoropropyl) piperidine-1-carboxamide], the IC50 in test [1], in test [2] (24 hours), in test [3] (24 hours) and in test [4] was 0.0001 to 10 µM in each case.
On to `CC1(C(O)c2c(F)c(Cl)c(F)c3cn[nH]c23)CCC1` (stereo not shown) [Compound P-0264, (5-chloro-4,6-difluoro-1H-indazol-7-yl)(1-methylcyclobutyl)methanol], for which the IC50 in test [1] is 0.0001 to 10 µM; in test [2] (24 hours incubation), 0.0001 to 10 µM; in test [3] (24 hours incubation), greater than 10 µM; in test [4], 0.0001 to 10 µM.
For `CC(C)(C1CCN(C(=O)Nc2cc(Cl)cc(Cl)c2)CC1)C(O)c1cc(Cl)cc2cn[nH]c12` (stereo not shown) [Compound P-0395, 4-(1-(5-chloro-1H-indazol-7-yl)-1-hydroxy-2-methylpropan-2-yl)-N-(3,5-dichlorophenyl) piperidine-1-carboxamide], the IC50 in test [1], in test [2] (24 hours incubation), in test [3] (24 hours incubation) and in test [4] was 0.0001 to 10 µM each time.
In the case of `CC(C)(C1CCN(C(=O)NC(=O)c2ccccc2)CC1)[C@H](O)c1cc(Cl)cc2cn[nH]c12` [Compound P-0555, (S)-N-benzoyl-4-(1-(5-chloro-1H-indazol-7-yl)-1-hydroxy-2-methylpropan-2-yl)piperidine-1-carboxamide], the IC50 in test [1], in test [2] (24 hours), in test [3] (24 hours) and in test [4] was 0.0001 to 10 µM in each case.
Turning to `O=C(Nc1ccc(C(F)(F)F)cc1)N1CCC(C(F)(F)C(O)c2cc(Cl)cc3cn[nH]c23)CC1` (stereo not shown) [Compound P-0153, 4-(2-(5-chloro-1H-indazol-7-yl)-1,1-difluoro-2-hydroxyethyl)-N-(4-(trifluoromethyl)phenyl)piperidine-1-carboxamide], the IC50 in test [1], in test [2] (24 hours incubation), in test [3] (24 hours incubation) and in test [4] was 0.0001 to 10 µM throughout.
Consider `CC1(C(O)c2cccc3cncn23)CCCCC1` (stereo not shown) [Compound P-0061, imidazo[1,5-a]pyridin-5-yl(1-methylcyclohexyl)methanol], for which the IC50 in test [1] was 0.0001 to 10 µM; in test [2] (24 hours incubation) it was 0.0001 to 10 µM; in test [3] (24 hours incubation), greater than 10 µM; in test [4], 0.0001 to 10 µM.
Regarding `O=C(NCC1CCS(=O)(=O)CC1)N1CCC(C(F)(F)C(O)c2cc(Cl)cc3cn[nH]c23)CC1` (stereo not shown) [Compound P-0467, 4-(2-(5-chloro-1H-indazol-7-yl)-1,1-difluoro-2-hydroxyethyl)-N-((1,1-dioxidotetrahydro-2H-thiopyran-4-yl)methyl)piperidine-1-carboxamide], the IC50 is 0.0001 to 10 µM in test [1], 0.0001 to 10 µM in test [2] (24 hours), greater than 10 µM in test [3] (24 hours) and 0.0001 to 10 µM in test [4].
As to `CC(C)(C1CCN(C(=O)CO)CC1)[C@H](O)c1cc(Cl)cc2cn[nH]c12` [Compound P-0535, (S)-1-(4-(1-(5-chloro-1H-indazol-7-yl)-1-hydroxy-2-methylpropan-2-yl)piperidin-1-yl)-2-hydroxyethan-1-one], the IC50 in test [1], in test [2] (24 hours), in test [3] (24 hours) and in test [4] was 0.0001 to 10 µM throughout.
Turning to `CC1(C)CN(c2cc(Cl)c(F)c3cn[nH]c23)CCN1S(C)(=O)=O` [Compound P-0097, 5-chloro-7-(3,3-dimethyl-4-(methylsulfonyl)piperazin-1-yl)-4-fluoro-1H-indazole], the IC50 in test [1], in test [2] (24 hours incubation), in test [3] (24 hours incubation) and in test [4] was 0.0001 to 10 µM each time.
As for `CCCC(=O)N1CCC(C(C)(C)[C@H](O)c2cc(Cl)cc3cn[nH]c23)CC1` [Compound P-0543, (S)-1-(4-(1-(5-chloro-1H-indazol-7-yl)-1-hydroxy-2-methylpropan-2-yl)piperidin-1-yl)butan-1-one], the IC50 in test [1], in test [2] (24 hours), in test [3] (24 hours) and in test [4] was 0.0001 to 10 µM each time.
For the compound `OC(c1cc(Cl)cc2cn[nH]c12)C1CC(F)(F)C1` (stereo not shown) [Compound P-0017, (5-chloro-1H-indazol-7-yl)(3,3-difluorocyclobutyl)methanol], the IC50 in test [1], in test [2] (24 hours incubation), in test [3] (24 hours incubation) and in test [4] was 0.0001 to 10 µM each time.
On to `CC(C)(C1CCN(C(=O)Nc2cccnc2)CC1)C(O)c1cc(Cl)cc2cn[nH]c12` (stereo not shown) [Compound P-0358, 4-(1-(5-chloro-1H-indazol-7-yl)-1-hydroxy-2-methylpropan-2-yl)-N-(pyridin-3-yl)piperidine-1-carboxamide], for which the IC50 in test [1], in test [2] (24 hours incubation), in test [3] (24 hours incubation) and in test [4] was 0.0001 to 10 µM in each case.
As to `CC(C)(C1CCN(C(=O)CC#N)CC1)[C@H](O)c1cc(Cl)cc2cn[nH]c12` [Compound P-0534, (S)-3-(4-(1-(5-chloro-1H-indazol-7-yl)-1-hydroxy-2-methylpropan-2-yl)piperidin-1-yl)-3-oxopropanenitrile], the IC50 in test [1], in test [2] (24 hours), in test [3] (24 hours) and in test [4] was 0.0001 to 10 µM throughout.
For the compound `CC1(C(O)c2c(Cl)c(Cl)cc3cn[nH]c23)CCCCC1` (stereo not shown) [Compound P-0025, (5,6-dichloro-1H-indazol-7-yl)(1-methylcyclohexyl)methanol], the IC50 in test [1], in test [2] (24 hours incubation), in test [3] (24 hours incubation) and in test [4] was 0.0001 to 10 µM each time.
Consider `CC(C)(C1CCN(C(=O)c2ccc(N3CCOCC3)nc2)CC1)C(O)c1cc(Cl)cc2cn[nH]c12` (stereo not shown) [Compound P-0367, (4-(1-(5-chloro-1H-indazol-7-yl)-1-hydroxy-2-methylpropan-2-yl)piperidin-1-yl)(6-morpholinopyridin-3-yl)methanone], for which the IC50 in test [1], in test [2] (24 hours incubation), in test [3] (24 hours incubation) and in test [4] was 0.0001 to 10 µM each time.
Take `CC(C)(C(O)c1cc(Cl)cc2cn[nH]c12)[C@H]1C[C@H]2CC[C@@H](C1)N2C(=O)NCC(F)(F)F` (stereo partly drawn) [Compound P-0438, (1R,3r,5S)-3-(1-(5-chloro-1H-indazol-7-yl)-1-hydroxy-2-methylpropan-2-yl)-N-(2,2,2-trifluoroethyl)-8-azabicyclo[3.2.1] octane-8-carboxamide]: the 50% inhibitory concentration (IC50) in test [1], in test [2] (24 hours), in test [3] (24 hours) and in test [4] was 0.0001 to 10 µM each time.
In the case of `CC(C1CC1)(C1CC1)C(O)c1c(F)c(Cl)cc2cn[nH]c12` (stereo not shown) [Compound P-0260, 1-(5-chloro-6-fluoro-1H-indazol-7-yl)-2,2-dicyclopropylpropan-1-ol], the IC50 in test [1], in test [2] (24 hours incubation), in test [3] (24 hours incubation) and in test [4] was 0.0001 to 10 µM each time.
In the case of `CC(C)(C)C(O)c1c(F)c(Cl)c(F)c2cn[nH]c12` (stereo not shown) [Compound P-0248, 1-(5-chloro-4,6-difluoro-1H-indazol-7-yl)-2,2-dimethylpropan-1-ol], the IC50 in test [1] was 0.0001 to 10 µM; in test [2] (24 hours incubation), 0.0001 to 10 µM; in test [3] (24 hours incubation) it was greater than 10 µM; in test [4] it was 0.0001 to 10 µM.
Turning to `CC(C)(C)OC(=O)N1CCC(C(C)(C)[C@@H](O)c2c(F)c(Cl)cc3cn[nH]c23)CC1` [Compound P-0384, tert-butyl (R)-4-(1-(5-chloro-6-fluoro-1H-indazol-7-yl)-1-hydroxy-2-methylpropan-2-yl)piperidine-1-carboxylate], the IC50 in test [1] is 0.0001 to 10 µM; in test [2] (24 hours incubation) it was greater than 10 µM; in test [3] (24 hours incubation), greater than 10 µM; in test [4], 0.0001 to 10 µM.
Regarding `CC(C)(C1CCOCC1)C(O)c1cc(Cl)cc2cn[nH]c12` (stereo not shown) [drawing 816], the pIC50 is 6.96 in test [1] (biochemical assay, comparative examples, 4,6 versus 5,7 indazole, read-out: IDO1); 7.10 in test [2] (cellular assay, HEK293, 24 hours, comparative examples, read-out: hIDO1); 5.58 in test [3] (cellular assay, HEK293, 24 hours, comparative examples, read-out: hTDO); 5.93 in test [4] (biochemical assay, comparative examples, 4,6 versus 5,7 indazole, read-out: TDO).
Turning to `OC(c1c(F)c(Cl)cc2cn[nH]c12)C12CCC(CC1)CC2` (racemic) [Compound P-0294, bicyclo[2.2.2]octan-1-yl(5-chloro-6-fluoro-1H-indazol-7-yl)methanol], the IC50 in test [1], in test [2] (24 hours incubation), in test [3] (24 hours incubation) and in test [4] was 0.0001 to 10 µM throughout.
For the compound `CCC(=O)N1CCC(C(C)(C)[C@H](O)c2cc(Cl)cc3cn[nH]c23)CC1` [Compound P-0444, (S)-1-(4-(1-(5-chloro-1H-indazol-7-yl)-1-hydroxy-2-methylpropan-2-yl)piperidin-1-yl)propan-l-one], the IC50 in test [1], in test [2] (24 hours), in test [3] (24 hours) and in test [4] was 0.0001 to 10 µM each time.
